Laboratory results published in patent publication US5216022A, “Aromatic esters of phenylenedialkanoates as inhibitors of human neutrophil elastase” (Cortech, Inc., priority 1991, dated 1993).

biological target: T1, human neutrophil elastase (HNE) (Homo sapiens, UniProt P08246); test: Potency (IC50 determination) against human neutrophil elastase, chromogenic substrate N-methoxysuccinyl-ala-ala-pro-val-pNA, 405 nm; type: biochemical; conditions: pH 7.7, 7 min incubation at room temperature
T1 sequence (P08246 30-267): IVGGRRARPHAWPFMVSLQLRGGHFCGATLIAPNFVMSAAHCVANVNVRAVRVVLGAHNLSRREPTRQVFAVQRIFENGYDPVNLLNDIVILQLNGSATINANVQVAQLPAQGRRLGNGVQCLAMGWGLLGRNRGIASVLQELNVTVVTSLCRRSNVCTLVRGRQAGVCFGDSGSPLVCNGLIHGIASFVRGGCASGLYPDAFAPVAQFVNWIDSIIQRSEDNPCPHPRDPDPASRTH
Experimental: A) 0.075M sodium phosphate, 20% dimethyl sulfoxide (DMSO),pH 7.7=substrate and inhibitor buffer
B) 0.075M sodium phosphate no DMSO,pH7.7=inhibitor buffer
C) 10 mM human neutrophil elastase (HNE) substrate=N-methoxysuccinyl-ala-ala-pro-val-pNA in DMSO
D) 0.01 sodium acetate, pH 5.5=enzyme buffer (storage)
E) HNE (1 mg) dissolved in 1 mL of […] for storage at -20° C.
Make a 10 mM stock of the inhibitor in DMSO. Dilute an aliquot (10 μL) up to 1.0 mL in reagent A (100 μM). Serially dilute 100 μL of the 100 μM in reagent A. Apply 100 μL of the diluted material to the wells of a 96-well plate. Dilute an aliquot of reagent F 1:150 in reagent D, apply 50 μL aliquots to the indicator wells and incubate 7 minutes at room temperature.
The HNE substrate solution is made by taking 100 μl of reagent C into 500 μL of reagent A and 400 μL of reagent B. After the 7 minutes of incubation, the substrate (50 μL) is applied to each well. The HNE catalyzed reaction is then monitored spectrophotometrically at 405 nm using an ELISA plate reader machine (UVMAX, Molecular Devices) which processes the raw data with an on-board kinetics program. The enzyme activity is plotted against different inhibitor concentrations and IC50 value is determined by using a curve fitting software program.

Row | SMILES | IC50 [nM]
1 | CCC(C(=O)Oc1ccc(SC)cc1)c1ccc(C(CC)C(=O)Oc2ccc(SC)cc2)cc1 (stereo not drawn) [Compound 1, Bis(4-Methylmercaptophenyl)2'-(1,4-phenylene)dibutyrate] | 8440
2 | CCC(C(=O)Oc1ccc([S+](C)[O-])cc1)c1ccc(C(CC)C(=O)Oc2ccc([S+](C)[O-])cc2)cc1 (stereo not drawn) [Compound 2] | 224
3 | CCC(C(=O)Oc1ccc(S(C)(=O)=O)cc1)c1ccc(C(CC)C(=O)Oc2ccc(S(C)(=O)=O)cc2)cc1 (stereo not drawn) [Compound 3] | 62
4 | CCC(C(=O)Oc1ccc(SCC(C)(C)C(=O)O)cc1)c1ccc(C(CC)C(=O)Oc2ccc(SCC(C)(C)C(=O)O)cc2)cc1 (stereo not drawn) [Compound 4] | 120
5 | CCC(C(=O)Oc1ccc([S+]([O-])CC(C)(C)C(=O)O)cc1)c1ccc(C(CC)C(=O)Oc2ccc([S+]([O-])CC(C)(C)C(=O)O)cc2)cc1 (stereo not drawn) [Compound 5] | 40
6 | CCC(C(=O)Oc1ccc(S(=O)(=O)CC(C)(C)C(=O)O)cc1)c1ccc(C(CC)C(=O)Oc2ccc(S(=O)(=O)CC(C)(C)C(=O)O)cc2)cc1 (stereo not drawn) [Compound 6] | 28
7 | CCC(C(=O)Oc1ccc([S+]([O-])C(C)(C)C(=O)O)cc1)c1ccc(C(CC)C(=O)Oc2ccc([S+]([O-])C(C)(C)C(=O)O)cc2)cc1 (stereo not drawn) [Compound 8] | 74

Results, then the compound that gave them:

Row | IC50 [nM] | SMILES
8 | 37 | CCC(C(=O)Oc1ccc(S(=O)(=O)C(C)(C)C(=O)O)cc1)c1ccc(C(CC)C(=O)Oc2ccc(S(=O)(=O)C(C)(C)C(=O)O)cc2)cc1 (stereo not drawn) [Compound 9]
9 | 253 | CC(C)(CSc1ccc(OC(=O)C(C)(C)c2ccc(C(C)(C)C(=O)Oc3ccc(SCC(C)(C)C(=O)O)cc3)cc2)cc1)C(=O)O [Compound 10]
10 | 23 | CC(C)(C[S+]([O-])c1ccc(OC(=O)C(C)(C)c2ccc(C(C)(C)C(=O)Oc3ccc([S+]([O-])CC(C)(C)C(=O)O)cc3)cc2)cc1)C(=O)O (stereo not drawn) [Compound 11]
11 | 835 | CC(C)(C(=O)Oc1ccc(SCC(=O)O)cc1)c1ccc(C(C)(C)C(=O)Oc2ccc(SCC(=O)O)cc2)cc1 [Compound 13]
12 | 77 | CC(C)(C(=O)Oc1ccc(S(=O)(=O)CC(=O)O)cc1)c1ccc(C(C)(C)C(=O)Oc2ccc(S(=O)(=O)CC(=O)O)cc2)cc1 [Compound 15]
13 | 198 | CCC(C(=O)Oc1ccc(SCC(C)(C)C(=O)O)cc1)c1cccc(C(CC)C(=O)Oc2ccc(SCC(C)(C)C(=O)O)cc2)c1 (stereo not drawn) [Compound 19]
14 | 36 | CCC(C(=O)Oc1ccc(S(=O)(=O)CC(C)(C)C(=O)O)cc1)c1cccc(C(CC)C(=O)Oc2ccc(S(=O)(=O)CC(C)(C)C(=O)O)cc2)c1 (stereo not drawn) [Compound 21]
15 | 64 | CCC(C(=O)Oc1ccnc(SC)n1)c1ccc(C(CC)C(=O)Oc2ccnc(SC)n2)cc1 (stereo not drawn) [Compound 28]
